Among the data in ChEMBL document CHEMBL1150951, “New mycalolides from the marine sponge Mycale magellanica and their interconversion” (J Nat Prod, 1998) are IC50 values, retold here.

In brackets after ≈: the same amount, converted by molar mass.

For the test, the system named is L1210. Put plainly: Cytotoxicity against mouse L1210 cells. The test is classed as functional, cell-based.

In turn, `CO[C@H]1C/C=C/c2nc(co2)-c2nc(co2)-c2nc(co2)[C@@H](OC)[C@@H](C)C(=O)/C=C/C[C@H](O)CC(=O)O[C@@H](C[C@H](OC)[C@@H](C)CCC(O)[C@@H](C)[C@H](OC(C)=O)[C@H](C)/C=C/N(C)C=O)[C@@H]1C` (stereo partly drawn) [30-HYDROXYMYCALOLIDE A] had an IC50 of 0.019 mg/L (≈ 0.0209 µM). `CO[C@H]1C/C=C/c2nc(co2)-c2nc(co2)-c2nc(co2)[C@@H](OC)[C@@H](C)C(=O)/C=C/C[C@H](O)CC(=O)O[C@@H](C[C@H](OC)[C@@H](C)CCC(=O)[C@@H](C)[C@H](O)[C@H](C)/C=C/N(C)C=O)[C@@H]1C` [32-HYDROXYMYCALOLIDE A] returned an IC50 of 0.013 mg/L (≈ 0.015 µM). This IC50 and that of the compound before are within 1.5-fold of each other. In turn, `COC(CO)C(=O)O[C@H](CC[C@H](C)[C@H](C[C@@H]1OC(=O)C[C@@H](O)C/C=C/C(=O)[C@H](C)[C@H](OC)c2coc(n2)-c2coc(n2)-c2coc(n2)/C=C/C[C@H](OC)[C@H]1C)OC)[C@H](C)[C@H](OC(C)=O)[C@H](C)/C=C/N(C)C=O` (stereo partly drawn) [38-HYDROXYMYCALOLIDE B] gave an IC50 of 0.015 mg/L (≈ 0.0148 µM).

A word on the IC50: it is the point on the concentration scale where inhibition reaches its midpoint. The low end stands for greater potency in that assay, the high end for weaker potency in that assay.
